According to ChEMBL document CHEMBL4622979, “Non-rigid Diarylmethyl Analogs of Baloxavir as Cap-Dependent Endonuclease Inhibitors of Influenza Viruses” (J Med Chem, 2020):

Experiments:
[1] = Elimination rate constant in CD1 mouse spleen assessed as (12aR)-12-(Diphenylmethyl)-7-hydroxy-3,4,12,12a-tetrahydro-1H-[1,4]oxazino[3,4-c]pyrido[2,1-f ][1,2,4]triazine-6,8-dione level at 15 mg/kg, po administered as single dose measured up to 24 hrs by LC-MS/MS analysis; format: ADME, organism-based; details: in vivo
[2] = Elimination rate constant in CD1 mouse small intestine assessed as (12aR)-12-(Diphenylmethyl)-7-hydroxy-3,4,12,12a-tetrahydro-1H-[1,4]oxazino[3,4-c]pyrido[2,1-f ][1,2,4]triazine-6,8-dione level at 15 mg/kg, po administered as single dose measured up to 24 hrs by LC-MS/MS analysis; format: ADME, organism-based; details: in vivo
[3] = AUClast in CD1 mouse liver assessed as (12aR)-12-(Diphenylmethyl)-7-hydroxy-3,4,12,12a-tetrahydro-1H-[1,4]oxazino[3,4-c]pyrido[2,1-f ][1,2,4]triazine-6,8-dione level at 15 mg/kg, po administered as single dose measured up to 24 hrs by LC-MS/MS analysis; format: ADME, organism-based; details: in vivo
[4] = AUCinfinity in CD1 mouse plasma assessed as (12aR)-12-(Diphenylmethyl)-7-hydroxy-3,4,12,12a-tetrahydro-1H-[1,4]oxazino[3,4-c]pyrido[2,1-f ][1,2,4]triazine-6,8-dione level at 15 mg/kg, po administered as single dose measured up to 24 hrs by LC-MS/MS analysis; format: ADME, organism-based; design: dose 15 mg/kg, time infinity, route oral; details: in vivo
[5] = AUCinfinity in CD1 mouse liver assessed as (12aR)-12-(Diphenylmethyl)-7-hydroxy-3,4,12,12a-tetrahydro-1H-[1,4]oxazino[3,4-c]pyrido[2,1-f ][1,2,4]triazine-6,8-dione level at 15 mg/kg, po administered as single dose measured up to 24 hrs by LC-MS/MS analysis; format: ADME, organism-based; design: dose 15 mg/kg, route oral, time infinity; details: in vivo
[6] = Cmax in CD1 mouse spleen assessed as (12aR)-12-(Diphenylmethyl)-7-hydroxy-3,4,12,12a-tetrahydro-1H-[1,4]oxazino[3,4-c]pyrido[2,1-f ][1,2,4]triazine-6,8-dione level at 15 mg/kg, po administered as single dose measured up to 24 hrs by LC-MS/MS analysis; format: ADME, organism-based; design: dose 15 mg/kg, route oral; details: in vivo
[7] = Cmax in CD1 mouse brain assessed as (12aR)-12-(Diphenylmethyl)-7-hydroxy-3,4,12,12a-tetrahydro-1H-[1,4]oxazino[3,4-c]pyrido[2,1-f ][1,2,4]triazine-6,8-dione level at 15 mg/kg, po administered as single dose measured up to 24 hrs by LC-MS/MS analysis; format: ADME, organism-based; design: dose 15 mg/kg, route oral; details: in vivo
[8] = AUClast in CD1 mouse spleen assessed as (12aR)-12-(Diphenylmethyl)-7-hydroxy-3,4,12,12a-tetrahydro-1H-[1,4]oxazino[3,4-c]pyrido[2,1-f ][1,2,4]triazine-6,8-dione level at 15 mg/kg, po administered as single dose measured up to 24 hrs by LC-MS/MS analysis; format: ADME, organism-based; details: in vivo
[9] = Stability in mouse plasma assessed as parent compound remaining at 1 uM measured after 4 hrs by LC-MS/MS analysis; format: ADME, cell-free; details: read-out: Stability
[10] = AUCinfinity in CD1 mouse blood assessed as (12aR)-12-(Diphenylmethyl)-7-hydroxy-3,4,12,12a-tetrahydro-1H-[1,4]oxazino[3,4-c]pyrido[2,1-f ][1,2,4]triazine-6,8-dione level at 15 mg/kg, po administered as single dose measured up to 24 hrs by LC-MS/MS analysis; format: ADME, organism-based; design: dose 15 mg/kg, time infinity, route oral; details: in vivo
[11] = AUClast in CD1 mouse kidney assessed as (12aR)-12-(Diphenylmethyl)-7-hydroxy-3,4,12,12a-tetrahydro-1H-[1,4]oxazino[3,4-c]pyrido[2,1-f ][1,2,4]triazine-6,8-dione level at 15 mg/kg, po administered as single dose measured up to 24 hrs by LC-MS/MS analysis; format: ADME, organism-based; details: in vivo
[12] = Ratio of AUClast in CD1 mouse muscle to plasma assessed as (12aR)-12-(Diphenylmethyl)-7-hydroxy-3,4,12,12a-tetrahydro-1H-[1,4]oxazino[3,4-c]pyrido[2,1-f ][1,2,4]triazine-6,8-dione level at 15 mg/kg, po administered as single dose measured up to 24 hrs by LC-MS/MS analysis; format: ADME, organism-based; details: other tissue
[13] = Cmax in CD1 mouse heart assessed as (12aR)-12-(Diphenylmethyl)-7-hydroxy-3,4,12,12a-tetrahydro-1H-[1,4]oxazino[3,4-c]pyrido[2,1-f ][1,2,4]triazine-6,8-dione level at 15 mg/kg, po administered as single dose measured up to 24 hrs by LC-MS/MS analysis; format: ADME, organism-based; design: dose 15 mg/kg, route oral; details: in vivo
[14] = AUCinfinity in CD1 mouse muscle assessed as (12aR)-12-(Diphenylmethyl)-7-hydroxy-3,4,12,12a-tetrahydro-1H-[1,4]oxazino[3,4-c]pyrido[2,1-f ][1,2,4]triazine-6,8-dione level at 15 mg/kg, po administered as single dose measured up to 24 hrs by LC-MS/MS analysis; format: ADME, organism-based, Muscle tissue; design: dose 15 mg/kg, route oral, time infinity; details: in vivo
[15] = Half life in CD1 mouse spleen assessed as (12aR)-12-(Diphenylmethyl)-7-hydroxy-3,4,12,12a-tetrahydro-1H-[1,4]oxazino[3,4-c]pyrido[2,1-f ][1,2,4]triazine-6,8-dione level at 15 mg/kg, po administered as single dose measured up to 24 hrs by LC-MS/MS analysis; format: ADME, organism-based; details: in vivo
[16] = Ratio of AUClast in CD1 mouse heart to plasma assessed as (12aR)-12-(Diphenylmethyl)-7-hydroxy-3,4,12,12a-tetrahydro-1H-[1,4]oxazino[3,4-c]pyrido[2,1-f ][1,2,4]triazine-6,8-dione level at 15 mg/kg, po administered as single dose measured up to 24 hrs by LC-MS/MS analysis; format: ADME, organism-based; details: other tissue
[17] = Cmax in CD1 mouse lung assessed as baloxavir acid level at 15 mg/kg, po administered as single dose by LC-MS/MS analysis; format: ADME, organism-based; design: dose 15 mg/kg, route oral; details: in vivo
[18] = MRTlast in CD1 mouse plasma assessed as baloxavir acid level at 15 mg/kg, po administered as single dose measured up to 24 hrs by LC-MS/MS analysis; format: ADME, organism-based; details: in vivo
[19] = Half life in CD1 mouse small intestine assessed as baloxavir acid level at 15 mg/kg, po administered as single dose measured up to 24 hrs by LC-MS/MS analysis; format: ADME, organism-based; details: in vivo
[20] = AUCinfinity in CD1 mouse spleen assessed as baloxavir acid level at 15 mg/kg, po administered as single dose measured up to 24 hrs by LC-MS/MS analysis; format: ADME, organism-based; design: dose 15 mg/kg, route oral, time infinity; details: in vivo
[21] = Oral bioavailability in CD1 mouse assessed as baloxavir acid level at 15 mg/kg administered as single dose by LC-MS/MS analysis; format: ADME, organism-based; details: in vivo
[22] = AUCinfinity in CD1 mouse lung assessed as baloxavir acid level at 15 mg/kg, po administered as single dose measured up to 24 hrs by LC-MS/MS analysis; format: ADME, organism-based; design: dose 15 mg/kg, route oral, time infinity; details: in vivo
[23] = AUClast in CD1 mouse spleen assessed as baloxavir acid level at 15 mg/kg, po administered as single dose measured up to 24 hrs by LC-MS/MS analysis; format: ADME, organism-based; details: in vivo
[24] = Elimination rate constant in CD1 mouse brain assessed as baloxavir acid level at 15 mg/kg, po administered as single dose measured up to 24 hrs by LC-MS/MS analysis; format: ADME, organism-based; details: in vivo

In the case of COC(=O)OCOc1c2n(ccc1=O)N(C(c1ccccc1)c1ccccc1)[C@@H]1COCCN1C2=O, the Kel [1] is reported as 0.39 h⁻¹, the Kel [2] is reported as 0.54 h⁻¹ and the AUClast [3] is reported as 34818 ng·h/g. For the same molecule, the AUC [4] was 3385 ng·h/mL, the AUC [5] was 34838 ng·h/g and the Cmax [6] was 1119 ng/g. For the same molecule, the Cmax [7] was 98 ng/g, the AUClast [8] was 4545 ng·h/g and the remaining at 4 h, 1 µM [9] was 0%. For the same molecule, the AUC [10] was 2861 ng·h/g, the AUClast [11] was 18065 ng·h/g and the “Ratio AUC” value [12] was 2.26. For the same molecule, the Cmax [13] was 2537 ng/g, the AUC [14] was 7693 ng·h/g and the t1/2 [15] was 1.77 h. For the same molecule, the “Ratio AUC” value [16] was 3.38.

COC(=O)OCOc1c2n(ccc1=O)N([C@@H]1c3ccccc3SCc3c1ccc(F)c3F)[C@@H]1COCCN1C2=O [BALOXAVIR MARBOXIL] gave a Cmax [17] of 1517 ng/g, an MRTlast [18] of 2.57 h and a t1/2 [19] of 3.13 h. The AUC [20] was 3640 ng·h/g, the F [21] was 26.9% and the AUC [22] was 9025 ng·h/g. It also gave an AUClast [23] of 3611 ng·h/g and a Kel [24] of 0.06 h⁻¹.
